# According to patent publication US12383549B2, “Combination therapy of crenolanib and apoptosis pathway agents for the treatment of proliferative disorders” (Arog Pharmaceuticals, Inc., priority 2020, dated 2025):
# What was measured:
# [1] = system: PDGFR, FLT3, and TRK kinases; conditions: versus other kinases, including c-KIT, VEGFR2, TIE2, FGFR2, EGFR, ERBB2, and SRC; cited from earlier work
# [2] = system: relapsed or refractory AML patients with activating FLT3 mutations (FLT3-ITD); test: Clinical trial NCT02400281: oral crenolanib besylate in combination with intravenous azacitidine, single-patient case reports; assay type: in vivo, human
# Source text: For the majority of patients, the clinical response is short-lived. Response criteria for AML clinical trials are adapted from the International Working Group for AML (Cheson, Bennett et al. 2003). Responders are patients who obtain a Complete Response (CR), Complete Response with incomplete blood count recovery (CRi), or Partial Remission (PR). Briefly, criteria are as follows: • 1. Complete Remission (CR): • a. Peripheral blood counts: • i. No circulating blasts • ii. Neutrophil count ≥1.0×10^9/L • iii. Platelet count ≥100×10^9/L • b. Bone marrow aspirate and biopsy: • i. ≤5% blasts • ii. No Auer Rods • iii. No extramedullary leukemia • 2. Complete remission with incomplete blood count recovery (CRi): • a. Peripheral blood counts: • i. No circulating blasts • ii. Neutrophil count <1.0×10^9/L, or • iii. Platelet count <100×10^9/L • b. Bone marrow aspirate and biopsy • i. ≤5% blasts • ii. No Auer Rods • iii. No extramedullary leukemia • 3. Partial remission: • a. All CR criteria if abnormal before treatment except: • b. ≥50% reduction in bone marrow blast but still >5%
# (§1) To overcome the poor prognosis of the persistent FLT3-ITD mutation, the patient was provided oral crenolanib besylate in combination with intravenous azacitidine on a clinical trial for relapsed or refractory AML patients with activating FLT3 mutations (NCT02400281). At baseline, the patient presented with 64% bone marrow blasts. The patient began treatment with 75 mg/m^2/day of azacitidine for 7 days and 60 mg of oral crenolanib besylate three times daily for the remainder of the 28 days cycle.
# as §1, with “13%” for “64%”, “80” for “60”, “daily.” for “daily for the remainder of the 28 days cycle.”
# [3] = system: PB and BM blasts of leukemia patients; conditions: cited from earlier work
compound,measurement,setting,value
CC1(COc2ccc3c(c2)ncn3-c2ccc3cccc(N4CCC(N)CC4)c3n2)COC1 [crenolanib],"selectivity for PDGFR, FLT3, and TRK kinases",[1],significantly more selective
CC1(COc2ccc3c(c2)ncn3-c2ccc3cccc(N4CCC(N)CC4)c3n2)COC1 [crenolanib besylate],bone marrow blasts,"[2]; Example 1: person, FLT3-ITD relapsed AML, baseline 64% blasts, azacitidine 75 mg/m^2/day for 7 days + crenolanib besylate 60 mg oral three times daily, after 27 days",3%
same,clinical response,"[2]; Example 1: same patient and regimen with azacitidine, after 27 days, neutrophils recovered, platelets partially recovered",CRi
same,bone marrow blasts,"[2]; Example 2: person, FLT3-ITD AML relapsed after transplant, baseline 13% blasts, azacitidine 75 mg/m^2/day for 7 days + crenolanib besylate 80 mg oral three times daily, after 28 days",1%
same,clinical response,"[2]; Example 2: same patient and regimen with azacitidine, after 28 days",morphological leukemia free state
same,clinical response on continued single agent therapy,[2]; Example 2: single agent crenolanib besylate for an additional 28 days,maintained a MLFS
CNC(=O)c1cc(Oc2ccc(NC(=O)Nc3ccc(Cl)c(C(F)(F)F)c3)cc2)ccn1 [sorafenib],bone marrow (BM) blast reduction,[3],only modest BM blast reductions
